Reference: patent US6576647B2, “Pseudopolymorph of (—)-cis-2-(2-chlorophenyl)-5,7-dihydroxy-8[4R-(3S-hydroxy -1-methyl)piperidinyl]-4H-1-benzopyran-4-one” (Aventis Pharmaceuticals Inc., priority 2000, dated 2003)
Entries after “also recorded” stand apart in the source; their conditions may differ.

How the values were obtained:
[1] = Variable humidity X-ray powder diffraction (crystallinity versus relative humidity); assay type: physicochemical; settings: variable humidity XRPD; hydrochloride
Excerpt: X-ray Powder Diffraction (XRPD) patterns were taken on a Scintag XDS 2000 θ/θ diffractometer operating with copper radiation at 45 kV and 40 mA, using a Kevex Psi Peltier-cooled silicon detector. Source slits of 2 and 4 mm, and detector slits of 0.5 and 0.3 mm were used for data collection. Form II samples were gently milled using an agate mortar and pestle for approximately one minute, placed in a platinum sample pan, and leveled using a glass microscope slide. Samples taken during or post hygroscopicity testing were not milled due to the limited amount of sample available. In each case, powder diffraction patterns were scanned from 2° to 42° 2θ at 1°/minute. Calibration of the XDS 2000 was verified using Silicon powder.
For variable relative humidity experiments, the larger capacity DVS-2 Surface Measurement Systems Dynamic Vapor Sorption analyzer was used. Using a flow rate of 500 cc/min, Form II was held at desired RH settings and sampled periodically for XRPD analysis. Unmilled material was placed in the platinum sample pan and leveled using a glass microscope slide prior to analysis using the above conditions.

[2] = Hygroscopicity screening by Dynamic Water Vapor Sorption Analysis (DVS); assay type: physicochemical; settings: for hygroscopicity assessment: conclusion from DVS weight gain, hydrochloride; for weight gain: 25° C. and 40° C.
Procedure: Hygroscopicity Screening—Comparison of Form I and Form II
Dynamic Vapor Sorption (DVS) Analysis Studies were Conducted on Form II Versus Form I.
Dynamic Water Vapor Sorption Analysis (DVS)
Form II was studied at 25° C. using a Surface Measurement Systems Dynamic Vapor Sorption DVS-1 analyzer. A sample in the range of about 14.8 mg was placed in a tared quartz sample holder at an initial ambient room humidity setting of about 48% Relative Humidity (RH). A total wet/dry nitrogen flow rate of 200 cc/min was used throughout the study. The following full cycle program was initiated: 30 min at the initial ambient RH, followed by settings of 0, 20, 40, 60, 80, 90, 95 and 98% RH, with exposure time at each humidity set point dependent upon dm/dt being less than 0.001% for 60 min. The maximum time allowed at any one humidity set point was 24 hours. For a full cycle, data collection took about 4 days to complete. After the full cycle the sample was maintained at the same RH as the initial ambient starting RH.
Form I was studied at 25° C. and 40° C. using the DVS-1 analyzer. Data was collected over two full cycles. Samples of 10.4 and 16.7 mg were placed into respective tared quartz sample holders at an initial ambient room humidity setting of about 46% RH and 33% RH, respectively. For this study, an additional 75% RH set point was used. For 2 full cycles, data collection took about 7 days at 25° C. and about 17 days at 40° C. to complete. After completion of each 2 cycle study, the samples were maintained at the same RH as the initial ambient starting RH.

With CN1CC[C@H](c2c(O)cc(O)c3c(=O)cc(-c4ccccc4Cl)oc23)[C@H](O)C1.Cl (relative stereo) [Form II, (−)-cis-2-(2-chlorophenyl)-5,7-dihydroxy-8[4R-(3S-hydroxy-1-methyl)piperidinyl]-4H-1-benzopyran-4-one hydrochloride, reference compound] the “crystallinity as the humidity is increased” value [1] was “apparent decrease in crystallinity”, the additional weight gain ([2]; DVS, above 60% relative humidity, 25° C.) was 15-20% and the hygroscopicity assessment [2] was “hygroscopic”.

In the case of CN1CC[C@H](c2c(O)cc(O)c3c(=O)cc(-c4ccccc4Cl)oc23)[C@H](O)C1.Cl (relative stereo) [Form I, (−)-cis-2-(2-chlorophenyl)-5,7-dihydroxy-8[4R-(3S-hydroxy-1-methyl)piperidinyl]-4H-1-benzopyran-4-one hydrochloride], the “crystallinity as the humidity is increased” value [1] is reported as “retains its crystallinity until extremely high relative humidity is reached”, the weight gain ([2]; DVS, above 90% RH) is reported as “about 30%” and the weight gain ([2]; DVS, through about 75% RH) is reported as 1-2%. For the same compound, the hygroscopicity assessment [2] was “hygroscopic above 75% RH; also recorded: less hygroscopic than Form II”.
